From US20250082633A1, “COMPOUNDS AND METHODS FOR MODULATING SPLICING” (REMIX THERAPEUTICS INC., priority 2021, published 2025)
Read-outs that look alike come from different tables or passages of the source.

Legend:
[1] = test system: HiBiT-tagged HTT protein in K562 cells; assay: HiBit protein abundance assay, HTT; format: cell-based, human; conditions: K562 HiBiT-modified cells, 24 hours, luminescence
Procedure, shortened: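 K562 lines with endogenously HiBiT-tagged target, 10000 cells/well in IMDM + 1% FBS, treated 24 h at 37 °C with 10-point 3-fold dilutions (top 10 μM final, DMSO ≤0.25%). Abundance read by Nano-Glo HiBiT lytic luminescence; IC50 is concentration giving 50% of untreated level, four-parameter fit.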

HTT mRNA = assay: RT-qPCR splicing assay, HTT canonical (CJ) and alternative (AJ) junction mRNA; format: cell-based; conditions: Homo sapiens; for IC50: read-out: HTT CJ IC50; for AC50: increase in alternative junction mRNA, read-out: HTT AJ AC50
Procedure, shortened: (§1)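 Splice-junction mRNAs (CJ, AJ) measured by TaqMan one-step RT-qPCR on cell lysates, using PPIA as reference for adherent A673 and GAPDH or GUSB for K562. Cells exposed for 24 h to 11 threefold concentrations up to 10 uM final, with DMSO at or below 0.25%.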

MYB mRNA = assay: RT-qPCR splicing assay, MYB canonical (CJ) and alternative (AJ) junction mRNA; format: cell-based; conditions: Homo sapiens; for IC50: read-out: MYB CJ IC50; for AC50: increase in alternative junction mRNA, read-out: MYB AJ AC50
Procedure, shortened: as §1

[2] = decrease in CJ mRNA levels, larger panel of genes, Table 3
[3] = decrease in canonical junction mRNA, A673 or K562 cells, 24 hours treatment, Table 2
[4] = A673 or K562 cells, 24 hours treatment, Table 2

IC50 [1] [µM] | IC50 (HTT mRNA; [2]) [µM] | IC50 (HTT mRNA; [3]) [µM] | IC50 (MYB mRNA; [2]) [µM] | IC50 (MYB mRNA; [3]) [µM] | SMILES | AC50 (HTT mRNA; [4]) [µM] | AC50 (MYB mRNA; [4]) [µM]
< 0.1 | < 0.1 | < 0.1 | 0.1 to 1 | 0.1 to 1 | Cc1nc2c(F)cc(-c3cc(F)c4nn(C5CCNCC5)cc4c3)cc2o1 [Compound 136, 4-fluoro-6-[7-fluoro-2-(4-piperidyl)indazol-5-yl]-2-methyl-1,3-benzoxazole] | < 0.1 | 0.1 to 1
1 to 10 | > 10 | > 10 | > 10 | > 10 | COC1=C(C)C2N=C(C)OC2C=C1c1cc(F)c2nn(C3CCNCC3)cc2n1 (centres unmarked) [Compound 144] | > 10 | > 10
